Columns and labels:
eastern black nightshade = assay: Test C pre-/postemergence test; assay type: in vivo, Solanum ptycanthum; details: for Plant response rating, Nightshade: 31 g ai/ha, scale 0 to 100 (0 no effect, 100 complete control)
In short: (§1)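 Compounds in a non-phytotoxic solvent with surfactant applied preemergence to seeded pots and, at the same time, postemergence to plants 2–18 cm tall (1- to 4-leaf stage). Paddy tests: pots flooded to 3 cm, compound applied into the water, depth held throughout.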

morningglory = assay: Test C pre-/postemergence test; assay type: in vivo, Ipomoea coccinea; details: for Plant response rating, Morningglory: 31 g ai/ha, scale 0 to 100 (0 no effect, 100 complete control)
In short: as §1

wild oat = assay: Test C pre-/postemergence test; assay type: in vivo, Avena fatua; details: for Plant response rating, Oat, Wild: 31 g ai/ha, scale 0 to 100 (0 no effect, 100 complete control)
In short: as §1

giant foxtail = assay: Test C pre-/postemergence test; assay type: in vivo, Setaria faberii; details: for Plant response rating, Foxtail, Giant: 31 g ai/ha, scale 0 to 100 (0 no effect, 100 complete control)
In short: as §1

wheat [1] = assay: Test C pre-/postemergence test; assay type: in vivo, Triticum aestivum; details: for Plant response rating, Wheat: 31 g ai/ha, scale 0 to 100 (0 no effect, 100 complete control)
In short: as §1

yellow nutsedge = assay: Test C pre-/postemergence test; assay type: in vivo, Cyperus esculentus; details: for Plant response rating, Nutsedge, Yellow: 31 g ai/ha, scale 0 to 100 (0 no effect, 100 complete control)
In short: as §1

johnsongrass = assay: Test C pre-/postemergence test; assay type: in vivo, Sorghum halepense
In short: as §1

catchweed bedstraw = assay: Test C pre-/postemergence test; assay type: in vivo, Galium aparine; details: for Plant response rating, Galium: 31 g ai/ha, scale 0 to 100 (0 no effect, 100 complete control)
In short: as §1

rice = assay: Test C flooded paddy test; assay type: in vivo, Oryza sativa; details: Flood
In short: (§2)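 Pots were flooded to 3 cm above the soil surface at treatment, compound applied directly to the paddy water, and that depth held throughout. Plants were kept in a greenhouse for 13 to 15 days, then visually rated against untreated controls.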

woolly cupgrass = assay: Test C pre-/postemergence test; assay type: in vivo, Eriochloa villosa; details: for Plant response rating, Cupgrass, Woolly: 31 g ai/ha, scale 0 to 100 (0 no effect, 100 complete control)
In short: as §1

downy brome = assay: Test C pre-/postemergence test; assay type: in vivo, Bromus tectorum; details: for Plant response rating, Bromegrass, Downy: 31 g ai/ha, scale 0 to 100 (0 no effect, 100 complete control)
In short: as §1

wheat [2] = assay: Test A pre-/postemergence greenhouse test; assay type: in vivo, Triticum aestivum; details: for Plant response rating, Wheat: 0 to 100 scale where 0 is no effect and 100 is complete control; for Wheat plant response rating: 0 to 100 scale
In short: (§3)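 Sowing in loam/sand; same-day pre (directed soil spray) and post (foliar, 1–2 leaf, 2–10 cm) treatment with surfactant-containing non-phytotoxic solvent formulation; ~10 days in greenhouse; eye-scored injury against untreated plants.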

duck salad = assay: Test C flooded paddy test; assay type: in vivo, Heteranthera limosa; details: Flood
In short: as §2

redroot pigweed = assay: Test A pre-/postemergence greenhouse test; assay type: in vivo, Amaranthus retroflexus; details: for Plant response rating, Pigweed: 0 to 100 scale where 0 is no effect and 100 is complete control; for Pigweed plant response rating: 0 to 100 scale
In short: as §3

velvetleaf [3] = assay: Test A pre-/postemergence greenhouse test; assay type: in vivo, Abutilon theophrasti; details: for Plant response rating, Velvetleaf: 0 to 100 scale where 0 is no effect and 100 is complete control; for Velvetleaf plant response rating: 0 to 100 scale
In short: as §3

corn = assay: Test C pre-/postemergence test; assay type: in vivo, Zea mays; details: for Plant response rating, Corn: 31 g ai/ha, scale 0 to 100 (0 no effect, 100 complete control)
In short: as §1

velvetleaf [4] = assay: Test C pre-/postemergence test; assay type: in vivo, Abutilon theophrasti; details: for Plant response rating, Velvetleaf: 31 g ai/ha, scale 0 to 100 (0 no effect, 100 complete control)
In short: as §1

[5] = 62 g ai/ha, Preemergence, scale 0 to 100
[6] = 125 g ai/ha, preemergence, scale 0 (no effect) to 100 (complete control)
[7] = preemergence, 250 g ai/ha, scale 0 (no effect) to 100 (complete control)
[8] = 62 g ai/ha, scale 0 to 100, 0 no effect, 100 complete control, 13 to 15 days
[9] = 250 g ai/ha, scale 0 to 100, 0 no effect, 100 complete control, 13 to 15 days
[10] = Postemergence, 500 g ai/ha, 0 is no effect, 100 is complete control
[11] = Preemergence, 125 g ai/ha, 0 no effect, 100 complete control
[12] = 31 g ai/ha, scale 0 to 100 (0 no effect, 100 complete control)
[13] = 125 g ai/ha, scale 0 to 100, 0 no effect, 100 complete control, 13 to 15 days
[14] = 250 g ai/ha, scale 0 to 100 (0 no effect, 100 complete control)
[15] = preemergence, 125 g ai/ha, scale 0 (no effect) to 100 (complete control)
[16] = Postemergence, 125 g ai/ha, 0 is no effect, 100 is complete control

## CC(c1c(C(F)(F)F)nn(CC(F)(F)F)c1Cl)[S+]([O-])c1cccc[n+]1[O-] (centres unmarked) [Compound 46]
Eastern black nightshade; [5]
  Nightshade plant response rating: 100
Eastern black nightshade; [6]
  Nightshade plant response rating: 100
Eastern black nightshade; Preemergence
  Plant response rating, Nightshade: 80
morningglory; [5]
  Morningglory plant response rating: 100
morningglory; [6]
  Morningglory plant response rating: 100
morningglory; Preemergence
  Plant response rating, Morningglory: 100
morningglory; [7]
  Morningglory plant response rating: 100
Wild oat; [5]
  Oat, Wild plant response rating: 20
Wild oat; [6]
  Oat, Wild plant response rating: 20
Wild oat; Preemergence
  Plant response rating, Oat, Wild: 0
Wild oat; [7]
  Oat, Wild plant response rating: 50
Giant foxtail; [5]
  Foxtail, Giant plant response rating: 100
Giant foxtail; [6]
  Foxtail, Giant plant response rating: 100
Giant foxtail; Preemergence
  Plant response rating, Foxtail, Giant: 85
Giant foxtail; [7]
  Foxtail, Giant plant response rating: 100
Wheat [1]; [5]
  Wheat plant response rating: 100
Wheat [1]; [6]
  Wheat plant response rating: 100
Wheat [1]; Preemergence
  Plant response rating, Wheat: 100
Wheat [1]; [7]
  Wheat plant response rating: 100
Yellow nutsedge; [5]
  Nutsedge, Yellow plant response rating: 60
Yellow nutsedge; [6]
  Nutsedge, Yellow plant response rating: 65
Yellow nutsedge; Preemergence
  Plant response rating, Nutsedge, Yellow: 60
Yellow nutsedge; [7]
  Nutsedge, Yellow plant response rating: 100
johnsongrass; [5]
  Johnsongrass plant response rating: 80
johnsongrass; [6]
  Johnsongrass plant response rating: 90
johnsongrass; Preemergence, 31 g ai/ha, scale 0 to 100 (0 no effect, 100 complete control)
  Plant response rating, Johnsongrass: 40
johnsongrass; [7]
  Johnsongrass plant response rating: 100
Catchweed bedstraw; [5]
  Galium plant response rating: 0
Catchweed bedstraw; [6]
  Galium plant response rating: 85
Catchweed bedstraw; Preemergence
  Plant response rating, Galium: 0
Catchweed bedstraw; [7]
  Galium plant response rating: 90
rice; [8]
  Plant response rating, Rice: 10
rice; [9]
  Plant response rating, Rice: 55
Woolly cupgrass; [5]
  Cupgrass, Woolly plant response rating: 80
Woolly cupgrass; [6]
  Cupgrass, Woolly plant response rating: 95
Woolly cupgrass; Preemergence
  Plant response rating, Cupgrass, Woolly: 80
Woolly cupgrass; [7]
  Cupgrass, Woolly plant response rating: 95
Downy brome; [5]
  Bromegrass, Downy plant response rating: 0
Downy brome; [6]
  Bromegrass, Downy plant response rating: 10
Downy brome; Preemergence
  Plant response rating, Bromegrass, Downy: 0
Downy brome; [7]
  Bromegrass, Downy plant response rating: 15
Wheat [2]; Postemergence, 125 g ai/ha
  Plant response rating, Wheat: 0
Wheat [2]; [10]
  Wheat plant response rating: 50
Wheat [2]; [11]
  Wheat plant response rating: 0
Wheat [2]; Preemergence, 500 g ai/ha
  Plant response rating, Wheat: 60
Duck salad; [8]
  Plant response rating, Ducksalad: 10
Duck salad; [9]
  Plant response rating, Ducksalad: 20
Redroot pigweed; Postemergence, 125 g ai/ha
  Plant response rating, Pigweed: 40
Redroot pigweed; [10]
  Pigweed plant response rating: 50
Redroot pigweed; [11]
  Pigweed plant response rating: 10
Redroot pigweed; Preemergence, 500 g ai/ha
  Plant response rating, Pigweed: 100
Velvetleaf [3]; Postemergence, 125 g ai/ha
  Plant response rating, Velvetleaf: 30
Velvetleaf [3]; [10]
  Velvetleaf plant response rating: 40
Velvetleaf [3]; [11]
  Velvetleaf plant response rating: 0
Velvetleaf [3]; Preemergence, 500 g ai/ha
  Plant response rating, Velvetleaf: 50
corn; [5]
  Corn plant response rating: 0
corn; [6]
  Corn plant response rating: 0
corn; Preemergence
  Plant response rating, Corn: 0
corn; [7]
  Corn plant response rating: 55
Velvetleaf [4]; [5]
  Velvetleaf plant response rating: 0
Velvetleaf [4]; [6]
  Velvetleaf plant response rating: 0
Velvetleaf [4]; Preemergence
  Plant response rating, Velvetleaf: 0
Velvetleaf [4]; [7]
  Velvetleaf plant response rating: 60

## Cc1cc[n+]([O-])c(S(=O)(=O)C(Cl)c2c(C(F)(F)F)nn(C)c2Cl)c1 (racemic) [Compound 22]
Eastern black nightshade; [5]
  Nightshade plant response rating: 85
Eastern black nightshade; Preemergence
  Plant response rating, Nightshade: 0
morningglory; [5]
  Morningglory plant response rating: 0
morningglory; Preemergence
  Plant response rating, Morningglory: 0
Wild oat; [5]
  Oat, Wild plant response rating: 45
Wild oat; Preemergence
  Plant response rating, Oat, Wild: 0
Giant foxtail; [5]
  Foxtail, Giant plant response rating: 80
Giant foxtail; Preemergence
  Plant response rating, Foxtail, Giant: 80
Giant foxtail; Preemergence, 250 g ai/ha
  Plant response rating (0 to 100), Foxtail, Giant: 100
Wheat [1]; [5]
  Wheat plant response rating: 0
Wheat [1]; Preemergence
  Plant response rating, Wheat: 0
Yellow nutsedge; [5]
  Nutsedge, Yellow plant response rating: 60
Yellow nutsedge; Preemergence
  Plant response rating, Nutsedge, Yellow: 50
johnsongrass; [5]
  Johnsongrass plant response rating: 10
johnsongrass; Preemergence, 250 g ai/ha
  Plant response rating (0 to 100), Johnsongrass: 70
Catchweed bedstraw; [5]
  Galium plant response rating: 100
Catchweed bedstraw; Preemergence
  Plant response rating, Galium: 95
Catchweed bedstraw; Preemergence, 250 g ai/ha
  Plant response rating (0 to 100), Galium: 100
rice; [12]
  Plant response rating, Rice: 0
rice; [8]
  Plant response rating, Rice: 30
rice; [13]
  Plant response rating, Rice: 80
rice; [14]
  Plant response rating, Rice: 80
Woolly cupgrass; [5]
  Cupgrass, Woolly plant response rating: 100
Woolly cupgrass; Preemergence
  Plant response rating, Cupgrass, Woolly: 60
Downy brome; [5]
  Bromegrass, Downy plant response rating: 0
Downy brome; Preemergence
  Plant response rating, Bromegrass, Downy: 0
Downy brome; Preemergence, 250 g ai/ha
  Plant response rating (0 to 100), Bromegrass, Downy: 0
Downy brome; [15]
  Bromegrass, Downy plant response rating: 0
Wheat [2]; [16]
  Wheat plant response rating: 0
Wheat [2]; [10]
  Wheat plant response rating: 40
Wheat [2]; [11]
  Wheat plant response rating: 20
Wheat [2]; Preemergence, 500 g ai/ha
  Plant response rating, Wheat: 50
Duck salad; [12]
  Plant response rating, Ducksalad: 20
Duck salad; [8]
  Plant response rating, Ducksalad: 80
Duck salad; [13]
  Plant response rating, Ducksalad: 85
Duck salad; [14]
  Plant response rating, Ducksalad: 90
Redroot pigweed; [16]
  Pigweed plant response rating: 10
Redroot pigweed; [10]
  Pigweed plant response rating: 50
Redroot pigweed; [11]
  Pigweed plant response rating: 100
Redroot pigweed; Preemergence, 500 g ai/ha
  Plant response rating, Pigweed: 100
Velvetleaf [3]; [16]
  Velvetleaf plant response rating: 0
Velvetleaf [3]; [10]
  Velvetleaf plant response rating: 40
Velvetleaf [3]; [11]
  Velvetleaf plant response rating: 10
Velvetleaf [3]; Preemergence, 500 g ai/ha
  Plant response rating, Velvetleaf: 60
corn; [5]
  Corn plant response rating: 20
corn; Preemergence
  Plant response rating, Corn: 0
corn; Preemergence, 250 g ai/ha
  Plant response rating (0 to 100), Corn: 100
corn; [15]
  Corn plant response rating: 30
Velvetleaf [4]; [5]
  Velvetleaf plant response rating: 0
Velvetleaf [4]; Preemergence
  Plant response rating, Velvetleaf: 0
